Results published in patent publication US9688661B2, “Substituted pyrroles active as kinases inhibitors” (NERVIANO MEDICAL SCIENCES S.R.L., priority 2012, dated 2017).

Legend:
[1] = target: JAK1 kinase domain (Homo sapiens (Human), UniProt P23458); test: Biochemical assay for inhibitors of JAK kinase activity, JAK1; settings: preactivated JAK1 kinase domain 2.5 nM, 100 μM ATP
Procedure: (§1) Specific JAK2, JAK1 or JAK3 peptide substrates are trans-phosphorylated by JAK kinases in the presence of ATP traced with 33P-γ-ATP. At the end of the phosphorylation reaction, the unreacted ATP, cold and radioactive, is captured by an excess of dowex ion exchange resin that eventually settles by gravity to the bottom of the reaction plate. The supernatant is subsequently withdrawn and transferred into a counting plate that is then evaluated by β-counting.
(§2) 500 g of wet resin (SIGMA, custom prepared resin DOWEX 1×8 200-400 mesh, 2.5 Kg) are weighed out and diluted 2 to 1 in 150 mM sodium formate, pH 3.00. The resin is allowed to settle down overnight and then the supernatant is discarded. After three washes as above over a couple of days, the resin is allowed to settle and two volumes (with respect to the resin volume) of 150 mM sodium formate buffer are added.
(§3) Kinase buffer was composed of 50 mM HEPES pH 7.5 containing 10 mM MgCl2, 2.5 mM DTT, 10 μM Na3VO4 and 0.2 mg/mL BSA.
Assays were performed with the JAK1 kinase domain (residues 861-1152 of the 1154 amino acid long full-length sequence, accession number P23458 of UniProtKB/Swiss-Prot database).
The JAK1 kinase domain was preactivated with ATP for 1 h at 28° C. in order to obtain a linear kinetic.
(§4) The peptidic substrate was purchased from American Peptide Company (Sunnyvale, Calif.).
(§5) Data are analyzed by Symix Assay Explorer software (Symix Technologies Inc.) that provides sigmoidal fitting algorithm of the 8 points dilutions curves for IC50 determination.

[2] = target: JAK2 kinase domain (Homo sapiens (Human), UniProt O60674); test: Biochemical assay for inhibitors of JAK kinase activity, JAK2; settings: JAK2 kinase domain 1 nM, 60 μM ATP
Procedure: as §1, §2, §3, §4, §5

[3] = system: JAK2 dependent human megakaryoblastic leukemia cell line SET-2; test: Cell proliferation assay, SET-2; type: cell-based; settings: SET-2 cells, 72 hours, CellTiter-Glo
[4] = system: JAK2 independent human chronic myelogenous leukaemia cell line K562; test: Cell proliferation assay, K562; type: cell-based; settings: K562 cells, 72 hours, CellTiter-Glo, read-out: IC50 K-562
[5] = target: TYK2 kinase domain (Homo sapiens (Human), UniProt P29597); test: Biochemical assay for inhibitors of JAK kinase activity, TYK2; settings: TYK2 kinase domain 3 nM, 31 μM ATP
Procedure: as §1, §2, §3, §4, §5

JAK1 kinase domain, sequence (P23458 861-1152): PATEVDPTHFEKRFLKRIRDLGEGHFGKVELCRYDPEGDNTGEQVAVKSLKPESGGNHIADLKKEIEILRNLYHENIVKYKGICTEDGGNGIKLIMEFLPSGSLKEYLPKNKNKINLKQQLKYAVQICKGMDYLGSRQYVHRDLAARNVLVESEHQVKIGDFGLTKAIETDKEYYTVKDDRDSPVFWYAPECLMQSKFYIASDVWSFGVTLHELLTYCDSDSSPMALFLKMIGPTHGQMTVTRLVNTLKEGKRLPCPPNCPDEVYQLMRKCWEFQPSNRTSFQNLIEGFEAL
JAK2 kinase domain, sequence (O60674 849-1124): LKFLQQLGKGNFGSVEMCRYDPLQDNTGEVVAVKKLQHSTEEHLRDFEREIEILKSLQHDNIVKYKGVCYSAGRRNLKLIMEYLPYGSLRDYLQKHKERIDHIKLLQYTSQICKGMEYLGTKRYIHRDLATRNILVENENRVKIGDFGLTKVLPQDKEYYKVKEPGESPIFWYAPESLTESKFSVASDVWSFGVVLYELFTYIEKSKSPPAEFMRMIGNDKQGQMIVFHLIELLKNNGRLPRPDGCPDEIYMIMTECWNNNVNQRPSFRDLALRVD
TYK2 kinase domain, sequence (P29597 833-1187): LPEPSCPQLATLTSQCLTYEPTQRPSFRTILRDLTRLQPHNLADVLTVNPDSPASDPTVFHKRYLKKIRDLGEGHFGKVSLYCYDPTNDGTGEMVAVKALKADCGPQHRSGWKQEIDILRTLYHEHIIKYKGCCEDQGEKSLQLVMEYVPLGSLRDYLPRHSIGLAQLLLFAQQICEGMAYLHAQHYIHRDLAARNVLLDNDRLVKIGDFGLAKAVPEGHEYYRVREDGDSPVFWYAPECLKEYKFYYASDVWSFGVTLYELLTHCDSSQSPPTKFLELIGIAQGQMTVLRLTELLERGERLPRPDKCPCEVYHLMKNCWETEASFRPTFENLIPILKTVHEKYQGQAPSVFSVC

Compound	IC50 [1]	IC50 [2]	IC50 [3]	IC50 [4]	IC50 [5]
Cc1ccc(C(F)(F)F)cc1-c1[nH]c(-c2ncnc3[nH]ccc23)cc1C(N)=O [compd 213, 2-[2-Methyl-5-(trifluoromethyl)phenyl]-5-(7H-pyrrolo[2,3-d]pyrimidin-4-yl)-1H-pyrrole-3-carboxamide]	27 nM	8 nM	290 nM	> 10000 nM	73 nM
CCc1ccc(C(F)(F)F)cc1-c1[nH]c(-c2cc(N)ncn2)cc1C(N)=O [compd 218, 5-(6-Aminopyrimidin-4-yl)-2-[2-ethyl-5-(trifluoromethyl)phenyl]-1H-pyrrole-3-carboxamide]	33 nM	4 nM	260 nM	6240 nM	54 nM
CCc1ccc(Cl)cc1-c1[nH]c(-c2cc(N)ncn2)cc1C#N [compd 9, 5-(6-Aminopyrimidin-4-yl)-2-(5-chloro-2-ethylphenyl)-1H-pyrrole-3-carbonitrile]	141 nM	23 nM	1270 nM	7230 nM	–
CCc1ccc(C(F)(F)F)cc1-n1cc(-c2cc(N)ncn2)cc1C(N)=O [compd 256, 4-(6-Aminopyrimidin-4-yl)-1-[2-ethyl-5-(trifluoromethyl)phenyl]-1H-pyrrole-2-carboxamide]	53 nM	6 nM	620 nM	> 10000 nM	31 nM
Cc1ccc(Cl)cc1-c1[nH]c(-c2cc(N)ncn2)cc1C(N)=O [compd 189, 5-(6-Aminopyrimidin-4-yl)-2-(5-chloro-2-methylphenyl)-1H-pyrrole-3-carboxamide]	139 nM	19 nM	890 nM	> 10000 nM	–
N#Cc1cc(-c2ncnc3[nH]ccc23)cn1-c1cc(C(F)(F)F)ccc1Cl [compd 72, 1-[2-Chloro-5-(trifluoromethyl)phenyl]-4-(7H-pyrrolo[2,3-d]pyrimidin-4-yl)-1H-pyrrole-2-carbonitrile]	17 nM	7 nM	510 nM	6610 nM	38 nM
NC(=O)c1cc(-c2ncnc3[nH]ccc23)[nH]c1-c1cc(C(F)(F)F)ccc1Cl [compd 206, 2-[2-Chloro-5-(trifluoromethyl)phenyl]-5-(7H-pyrrolo[2,3-d]pyrimidin-4-yl)-1H-pyrrole-3-carboxamide]	140 nM	19 nM	700 nM	> 10000 nM	–
Cc1ccc(Cl)cc1-n1cc(-c2cc(N)ncn2)cc1C(N)=O [compd 227, 4-(6-Aminopyrimidin-4-yl)-1-(5-chloro-2-methylphenyl)-1H-pyrrole-2-carboxamide]	595 nM	73 nM	2360 nM	> 10000 nM	–
Cc1ccc(Cl)cc1-c1[nH]c(-c2ccnc3[nH]ccc23)cc1C(N)=O [compd 192, 2-(5-Chloro-2-methylphenyl)-5-(1H-pyrrolo[2,3-b]pyridin-4-yl)-1H-pyrrole-3-carboxamide]	111 nM	13 nM	860 nM	> 10000 nM	51 nM
CCc1ccc(Cl)cc1-n1cc(-c2cc(N)ncn2)cc1C#N [compd 47, 4-(6-Aminopyrimidin-4-yl)-1-(5-chloro-2-ethylphenyl)-1H-pyrrole-2-carbonitrile]	869 nM	66 nM	3070 nM	> 10000 nM	–
CNc1cc(-c2cc(C(N)=O)c(-c3cc(C(F)(F)F)ccc3Cl)[nH]2)ncn1 [compd 205, 2-[2-Chloro-5-(trifluoromethyl)phenyl]-5-[6-(methylamino)pyrimidin-4-yl]-1H-pyrrole-3-carboxamide]	104 nM	19 nM	650 nM	> 10000 nM	–
CNc1cc(-c2cc(C(N)=O)c(-c3cc(C(F)(F)F)ccc3C)[nH]2)ncn1 [compd 212, 5-[6-(Methylamino)pyrimidin-4-yl]-2-[2-methyl-5-(trifluoromethyl)phenyl]-1H-pyrrole-3-carboxamide]	48 nM	21 nM	460 nM	> 10000 nM	–
NC(=O)c1cc(-c2ncnc3[nH]ncc23)cn1-c1cc(C(F)(F)F)ccc1Cl [compd 246, 1-[2-Chloro-5-(trifluoromethyl)phenyl]-4-(1H-pyrazolo[3,4-d]pyrimidin-4-yl)-1H-pyrrole-2-carboxamide]	212 nM	18 nM	1200 nM	3490 nM	58 nM
NC(=O)c1cc(-c2ncnn3cccc23)cn1-c1cc(C(F)(F)F)ccc1Cl [compd 247, 1-[2-Chloro-5-(trifluoromethyl)phenyl]-4-(pyrrolo[2,1-f][1,2,4]triazin-4-yl)-1H-pyrrole-2-carboxamide]	991 nM	–	–	–	–
CNc1cc(-c2cc(C(N)=O)c(-c3cc(Cl)ccc3C)[nH]2)ncn1 [compd 190, 2-(5-Chloro-2-methylphenyl)-5-[6-(methylamino)pyrimidin-4-yl]-1H-pyrrole-3-carboxamide]	52 nM	22 nM	750 nM	> 10000 nM	94 nM
CNC(=O)c1cc(-c2ncnc3[nH]ccc23)[nH]c1-c1cc(C(F)(F)F)ccc1C [compd 318, 2-[2-Methyl-5-(trifluoromethyl)phenyl]-N-methyl-5-(7H-pyrrolo[2,3-d]pyrimidin-4-yl)-1H-pyrrole-3-carboxamide]	63 nM	25 nM	350 nM	> 10000 nM	–
Cc1ccc(C(F)(F)F)cc1-c1[nH]c(-c2cc(N)ncn2)cc1C(N)=O [compd 211, 5-(6-Aminopyrimidin-4-yl)-2-[2-methyl-5-(trifluoromethyl)phenyl]-1H-pyrrole-3-carboxamide]	108 nM	11 nM	590 nM	> 10000 nM	–
NC(=O)c1cc(-c2cc(N)ncn2)[nH]c1-c1cc(C(F)(F)F)ccc1Cl [compd 204, 5-(6-Aminopyrimidin-4-yl)-2-[2-chloro-5-(trifluoromethyl)phenyl]-1H-pyrrole-3-carboxamide]	167 nM	12 nM	450 nM	> 10000 nM	–
CCc1ccc(Cl)cc1-c1[nH]c(-c2ncnc3[nH]ccc23)cc1C(=O)NC [compd 303, 2-(5-Chloro-2-ethylphenyl)-N-methyl-5-(7H-pyrrolo[2,3-d]pyrimidin-4-yl)-1H-pyrrole-3-carboxamide]	–	1 nM	140 nM	3760 nM	12 nM
CCc1ccc(Cl)cc1-n1cc(-c2cc(N)ncn2)cc1C(N)=O [compd 235, 4-(6-Aminopyrimidin-4-yl)-1-(5-chloro-2-ethylphenyl)-1H-pyrrole-2-carboxamide]	79 nM	–	–	–	32 nM
NC(=O)c1cc(-c2ncnc3[nH]cnc23)cn1-c1cc(C(F)(F)F)ccc1Cl [compd 245, 1-[2-Chloro-5-(trifluoromethyl)phenyl]-4-(9H-purin-6-yl)-1H-pyrrole-2-carboxamide]	386 nM	27 nM	1230 nM	> 10000 nM	–
NC(=O)c1cc(-c2cc(N)ncn2)cn1-c1cc(C(F)(F)F)ccc1Cl [compd 242, 4-(6-Aminopyrimidin-4-yl)-1-[2-chloro-5-(trifluoromethyl)phenyl]-1H-pyrrole-2-carboxamide]	1080 nM	71 nM	1570 nM	> 10000 nM	–
